Entries after “also recorded” stand apart in the source; their conditions may differ.
Test system: murine model of allergen-induced peritonitis
Assay: Murine model of allergen-induced peritonitis (Type 1 hypersensitivity), eosinophil recruitment
Assay type: in vivo, mouse
Conditions: Compound G 50 mg/kg i.v., peritoneal fluid 48 hrs post-challenge
Experimental: To evaluate the anti-inflammatory potential of compound A, a murine model of Type 1 hypersensitivity was used. In this model mice are sensitized to ovalbumin and subsequently challenged with ovalbumin by intraperitoneal injection. This leads to eosinophil recruitment and accumulation in the peritoneal cavity 24-48 hours after the challenge.
6-8 week old Balb/c mice (weighing 20-30 g) were given subcutaneous injections of ovalbumin in alum (0.4 ml of 100 μg ovalbumin and 3.3 mg of Alum Inject) on days 0 and 7. The mice were challenged on day 14 with an intraperitoneal injection of ovalbumin (10 μg in 0.2 ml saline). The mice were sacrificed and peritoneal lavage fluid collected 48 hours after the challenge. The peritoneal fluid was concentrated and slide smears made using a cytospin centrifuge. Slides were stained with Diff-Quik and differential counts obtained by counting 300 cells. Compound A was administered by intravenous injection, in a vehicle composed of 95% Liposyn and 5% Tween 20, 4 or 1 hour prior to challenge. Compound A was compared to dexamethosone administered orally at a dose of 2.5 mg/kg/d.
In a common allergic inflammation, balb/C mice were divided into two groups: control/vehicle and Compound G treated. They were then sensitized to ovalbumin on days 0 and 7 with a subcutaneous injection of ovalbumin absorbed in aluminum hydroxide. The treated group was dosed i.v. 50 mg/kg in liposyn/tween and vehicle one day prior to challenge. The mice were then challenged with an intraperitoneal injection of ovalbumin on day 14 and sacrificed 48 hrs post-challenge. Peritoneal fluid was collected and spun down onto slides. Slides were stained with DiffQuik and a differential performed.

In the case of `COc1cc(/C=C/C(=O)c2ccc(OC)c(OC)c2OC)cc(-c2cccs2)c1OC` [Compound G, 3-(3,4-Dimethoxy-5-thiophen-2-ylphenyl)-1-(2,3,4-trimethoxy-phenyl)propenone], the “Inhibition of eosinophilia compared with vehicle controls” value is reported as 39%.

Same assay, conditions: Compound G 50 mg/kg/d intravenous

With `COc1cc(/C=C/C(=O)c2ccc(OC)c(OC)c2OC)cc(-c2cccs2)c1OC` [Compound G, 3-(3,4-Dimethoxy-5-thiophen-2-ylphenyl)-1-(2,3,4-trimethoxy-phenyl)propenone] the “Eosinophil levels in peritoneal fluid (percent eosinophils)” value was “significantly decreased”.

Test system: p3xCPRE/Luc
Assay: p3xCPRE/Luc reporter, transient transfection in HeLa cells
Assay type: cell-based, human
Conditions: t-BHQ 25 μM
Experimental: HMEC cells (passage 20) and HeLa cells were seeded into 6 well plates and were grown to approximately 60-70% confluency. Cells were transfected with 2 μg (HeLa) or 1 μg (HMEC) each of p3xCPRE/Luc reporter and Nrf-2 expression vector (an expression vector containing the full-length murine Nrf-2 gene under the control of the CMV promoter (Asakura & Karino (1990) Circ Res, 66:1045-1066). Cells were cultured for an additional 48 hours, and luciferase activity was determined (Promega). An average of at least three independent determinations were made for each experimental sample. Results are expressed as ratio of firefly/renilla luciferase.
(§1) In an effort to determine the utility of the CPRE-Luc reporter construct for the identification of small molecular weight compounds that activate the CPRE, the p3xCPRE/Luc reporter was transiently transfected into both HeLa and endothelial cells (HMECs). […] Similar results were obtained in HeLa cells with both t-BHQ and compound A (FIG. 12b).
(§2) HMECs and HeLa cells were transiently transfected with 1 μg of 3xCPRE-Luc and 0.1 μg of pRL-SV40. One day after transfection, cells were treated with t-BHQ or compound A. Luciferase activities were determined 16 hours after exposure to tBHQ. To generate stable HeLa cell lines that contain a stably-integrated copy of the CPRE-Luc gene, HeLa cells were transfected with p3xCPRE-Luc plus pcDNA-LacZ-Hyg (an expression vector containing the hygromycin drug resistance gene) using SuperFect transfection reagent. Two days after transfection, cells were cultured in hygromycin (400 μg/ml)-containing selection medium until individual colonies were identified. The colonies were expanded and the presence of CPRE-Luc-containing clones was examined by inducible luciferase activity. All experiments are an average of at least three independent determinations for each experimental sample.

With `CC(C)(C)c1cc(O)ccc1O` [t-BHQ, reference compound] the p3xCPRE/Luc activity was “significantly increased”.

Test system: p3xCPRE/Luc
Assay: p3xCPRE/Luc reporter, transient transfection in HMEC cells
Assay type: cell-based, human
Conditions: t-BHQ 20 μM
Experimental: as §1, §2

For `CC(C)(C)c1cc(O)ccc1O` [t-BHQ, reference compound], the p3xCPRE/Luc activity was “induced CPRE-dependent gene expression; also recorded: significantly increased”.

Test system: p3xCPRE/Luc
Assay: Activation of p3xCPRE/Luc by small molecular weight organic compounds (Table 6)
Assay type: cell-based, human
Conditions: luciferase activity 16 hours after exposure
Experimental: In the in vitro assay system described above, a stable HeLa cell line was generated that contains a stably-integrated copy of the CPRE-Luc gene.
as §2, with “the compounds listed in Table 6” for “t-BHQ or compound A.”, “the compounds.” for “tBHQ.”, “SuperFeet” for “SuperFect”, “All experiments are an average of at least three independent determinations for each experimental sample.” left out

First: O=C(/C=C/c1ccccc1)c1ccccc1 [B, 1,3-diphenylpropenone]
Second: COc1c(C(C)(C)C)cc(C(=O)/C=C/c2ccccc2)cc1C(C)(C)C [D, 1-(3,5-Di-tert-butyl-4-methoxyphenyl)-3-phenyl-propenone]
The “CPRE Activity: concentration to achieve a two-fold induction of CPRE activity over control” value of the first is 10-fold higher: 25 µM for the first, 2.5 µM for the second.

Going from `COc1ccc(/C=C/C(=O)c2cc(C(C)(C)C)c(OC)c(C(C)(C)C)c2)cc1` [Compound C, 1-(3,5-di-tert-butyl-4-methoxyphenyl)-3-(4-methoxyphenyl)-propenone] to `COc1ccc(COc2ccc(C(=O)/C=C/c3cc(OC)c(OC)c(OC)c3)cc2OC)cc1` [K], the “CPRE Activity: concentration to achieve a two-fold induction of CPRE activity over control” value falls from 5 µM to 2 µM (2.5-fold).

`COc1cc(/C=C/C(=O)c2ccc(OC)c(OC)c2OC)cc(-c2cccs2)c1OC` [Compound G, 3-(3,4-Dimethoxy-5-thiophen-2-ylphenyl)-1-(2,3,4-trimethoxy-phenyl)propenone] and `COc1cc(/C=C/C(=O)c2ccc(OC)c(OC)c2OC)cc(-c2cc3ccccc3s2)c1OC` [Q, 3-(3-Benzo[b]thiophene-2-yl-4,5-dimethoxy-phenyl)-1-(2,3,4-trimethoxy-phenyl)propenone] are within 1.5-fold of each other in “CPRE Activity: concentration to achieve a two-fold induction of CPRE activity over control” value: 3 µM for the first, 2.5 µM for the second.

Going from `COc1ccc(C(=O)/C=C/c2ccc(-c3cccs3)cc2)cc1OC` [Compound I, 1-(3,4-Dimethoxy-phenyl)-3-(4-thiophen-2-ylphenyl)propenone] to `COc1ccc(-c2cccs2)cc1/C=C/C(=O)c1ccc(OCc2ccccn2)c(OC)c1` [L, 1-[3-Methoxy-4-(pyridin-2-ylmethoxy)-phenyl]-3-(2-methoxy-5-thiophen-2-yl-phenyl)propenone], the “CPRE Activity: concentration to achieve a two-fold induction of CPRE activity over control” value falls from 8 µM to 0.7 µM (11-fold).

Going from `CCOc1cc(OCC)c(C(=O)/C=C/c2cc(Br)c(OC)c(OC)c2)cc1OCC` [E, 3-(3-Bromo-4,5-dimethoxyphenyl)-1-(2,4,5-triethoxyphenyl)-propenone] to `COc1cc(OC)c(C(=O)/C=C/c2cc(Br)c(OC)c(OC)c2)cc1OC` [F, 1-(3-Bromo-4,5-dimethoxyphenyl)-1-(2,4,5-trimethoxy-phenyl)propenone], the “CPRE Activity: concentration to achieve a two-fold induction of CPRE activity over control” value falls from 12.5 µM to 1 µM (12-fold).

`COc1ccc(-c2cccs2)cc1/C=C/C(=O)c1cc(OC)c(OC)c(OC)c1` [H, 3-(2-Methoxy-5-thiophen-2-ylphenyl)-1-(3,4,5-trimethoxy-phenyl)propenone] and `COc1cc(OC)c(-c2cc3ccccc3s2)cc1/C=C/C(=O)c1ccc(OC)c(OC)c1` [M, 3-(5-Benzo[b]thiophene-2-yl-2,4-dimethoxy-phenyl)-1-(3,4-dimethoxyphenyl)-propenone] are within 1.5-fold of each other in “CPRE Activity: concentration to achieve a two-fold induction of CPRE activity over control” value: 2 µM for the first, 2.5 µM for the second.

First: COc1cc2c(cc1OC)C(=O)/C(=C/c1cc(Br)c(OC)c(OC)c1)CC2 [J, 2-(3-Bromo-4,5-dimethoxy-benzylidene)-6,7-dimethoxy-3,4-dihydro-2H-naphthalen-1-one.]
Second: COc1cc(OC)c(-c2cc3ccccc3s2)cc1/C=C/C(=O)c1cc(OC)c(O)c(OC)c1 [O, 3-(5-Benzo[b]thiophene-2-yl-2,4-dimethoxy-phenyl)-1-(4-hydroxy-3,5-dimethoxyphenyl)-propenone]
The “CPRE Activity: concentration to achieve a two-fold induction of CPRE activity over control” value of the first is 4.3-fold higher: 3 µM for the first, 0.7 µM for the second.

Compared with `COc1cc(OC)c(-c2cc3ccccc3s2)cc1/C=C/C(=O)c1cc(OC)c(OCC(=O)[O-])c(OC)c1.[Na+]` [N, Sodium {4-[3-(5-benzo[b]thiophene-2-yl-2,4-dimethoxy-phenyl)acryloyl]-2,6-dimethoxyphenoxy}-acetate], `COc1cc(OCC(=O)[O-])c(/C=C/C(=O)c2cc(OC)c(OC)c(OC)c2)cc1-c1cc2ccccc2s1.[Na+]` [R, Sodium {4-benzo[b]thiophene-2-yl-5-methoxy-2-[3-oxo-3-(3,4,5-trimethoxyphenyl)-propenyl]phenoxy}-acetate] is 10-fold higher in “CPRE Activity: concentration to achieve a two-fold induction of CPRE activity over control” value: 1.4 µM for the first, 14 µM for the second.

With `COc1cc(OC)c(-c2cc3ccccc3s2)cc1/C=C/C(=O)c1cc(OC)c([O-])c(OC)c1.[Na+]` [P, Sodium 4-[3-(5-benzo[b]thiophene-2-yl-2,4-dimethoxy-phenyl)acryloyl]-2,6-dimethoxyphenolate] the “CPRE Activity: concentration to achieve a two-fold induction of CPRE activity over control” value was 1 µM.

From patent publication US7247714B2, “Protection against oxidative stress and inflammation by a cytoprotective response element” (Atherogenics, Inc., priority 2001, dated 2007)
